Values joined by “and” are separate entries in the source; they are usually repeats but may differ in a detail not shown here. Equal entries are not always repeated.
Test system: cAMP levels in FRT cells
Test: Tropix assay for measurement of cAMP in FRT cells
Type: cell-based, rat
Settings: n=4; for cAMP generated, average % of cAMP produced by 20 μM of forskolin: 15 minutes incubation
Method: In the following example, the effect on cAMP levels by three structurally similar compounds from Table 1 were determined using the cAMP levels from 20 μM forskolin as the normalized reference measure.
The level of cAMP in FRT cells following 0.5 μM forskolin or test compound application was determined using a commercially available chemiluminiscent immunoassay system for mammalian cells called Tropix® (Applied Biosystems, Bedford, Mass.). Briefly, FRT cells were incubated for 15 minutes with a test compound in the presence and absence of 0.5 μM forskolin. The compounds were aspirated and the cells were then lysed and transferred along with the lysis buffer to a 96-well Tropix® ELISA plate. A cAMP-Alk Phos conjugate is then added to the assay plate, followed by the addition of cAMP anti-body. After several wash and aspiration steps, Sapphire blue II solution is added and the […], and the cAMP concentrations were determined using a cAMP standard curve that was present in each plate.

[1] = compound in the presence of 0.5 μM forskolin, FRT cells

| SMILES | cAMP generated, average % of cAMP produced by 20 μM of forskolin (compound alone, FRT cells) [%] | cAMP generated, average % of cAMP produced by 20 μM of forskolin [1] [%] | change of cAMP compared with the DMSO control (compound alone) | change of cAMP compared with the 0.5 μM forskolin control (compound in the presence of 0.5 μM forskolin) | cAMP of the 0.5 μM forskolin control, % of 20 μM forskolin (0.5 μM forskolin alone, FRT cells) |
| --- | --- | --- | --- | --- | --- |
| COc1ccc(C2(CNC(=O)c3cc4ccccc4o3)CCCC2)cc1OC [Compound 7, N-((1-(3,4-dimethoxyphenyl)-cyclopentyl)methyl)benzofuran-2-carboxamide] | 40.3±3.5 | 92.3±2.7 | – | – | – |
| COc1ccc(C(C)(C)CNC(=O)c2cc3ccccc3o2)cc1OC [Compound 34, N-(2-(3,4-dimethoxyphenyl)-2-methylpropyl)benzofuran-2-carboxamide] | 24.4±1.1 | 61.5±1.8 | not a significant increase | significant increase | – |
| C=C[C@@]1(C)CC(=O)[C@]2(O)[C@@]3(C)[C@@H](O)CCC(C)(C)[C@@H]3[C@H](O)[C@H](OC(C)=O)[C@@]2(C)O1 [forskolin, reference compound] | – | – | – | – | 45.9±3.0% and 32.2±3.2% |

— patent US7598412B2, “Modulators of ATP-binding cassette transporters” (Vertex Pharmaceuticals Incorporated, priority 2003, dated 2009)
